26 molecules from patent US8193356B2, “Heterocycle compound, and production process and application thereof” (Aska Pharmaceutical Co., Ltd., priority 2005, dated 2012) can be followed below.

The subject of data set [1] is T1, PDE IV isozyme separated from U937 cultured cell.
T1 construct: PDE IV isozyme separated from U937 cultured cell by an ion exchange chromatography was used
Kind of data set: PDE IV inhibitory action. To be noted: cAMP as substrate, 30° C. for 20 minutes, Probit method. The format is biochemical. On the procedure:
PDE IV isozyme separated from U937 cultured cell by an ion exchange chromatography was used. The PDE IV isozyme was added to ethylene glycol so that the final concentration of the isozyme was 30% by weight, and the solution was stored at −20° C. The stored solution was dissolved in use. The enzyme activity was measured by using cAMP as a substrate.
On the other hand, the test compound was dissolved in dimethylsulfoxide (DMSO) so that the final concentration of the test compound was 1% by weight (2.5 μL/tube), and the resulting solution was named Solution B.
Formulation of the incubation buffer (pH 7.5): Tris-hydrochloric acid (50 mM), magnesium chloride (6 mM), dithiothreitol (2.5 mM), 5-nucleotidase (4 μg/mL), bovine serum albumin (0.23 mg/mL), and cAMP (1 μM)
A mixture of the Solution B of the test compound and the Solution A was incubated at 30° C. for 20 minutes. Then, 1 mL of a slurry of an anion exchange resin (AG1-X8, 200-400 mesh, chloride form; manufactured by Bio-Rad Laboratories, Inc.) was added thereto, and the reaction was stopped by adsorption of an unreacted substrate on the resin.
After the stop of the reaction, the reaction mixture was centrifuged at a centrifugal acceleration of 800×g for 10 minutes, and 250 μL of the resulting supernatant was transferred in a vial. To the vial was added 5 mL of ACS-II (a scintillator manufactured by Amarsham Bioscience), and a [^3H]-adenosine radio activity was measured as a PDE IV activity by a liquid scintillation counter.

In another data set the test system is TNFα production. Nature of the data set: Inhibitory action on galactosamine- and LPS-induced TNFα production. Type of data set: in vivo. The settings on record: mouse, 0.5 mg/kg orally, serum TNFα one hour after galactosamine and LPS i.v., ELISA. On the procedure:
A dose (0.5 mg/kg) of the test compound suspended in 0.5% (W/V) CMC-Na aqueous solution was orally administered to a mouse. After one hour, galactosamine (800 mg/kg) and LPS (5 μg/kg) were intravenously administered to induce TNFα production. The amount of TNFα in serum one hour after the administration of galactosamine and LPS was measured by ELISA method.
A general note: ELISA stands for enzyme-linked immunosorbent assay.

The target in a further data set is T2, CYP2D6 (Homo sapiens, UniProt P10635).
T2 construct: purchased BD Bioscience
T2 sequence (P10635 whole entry): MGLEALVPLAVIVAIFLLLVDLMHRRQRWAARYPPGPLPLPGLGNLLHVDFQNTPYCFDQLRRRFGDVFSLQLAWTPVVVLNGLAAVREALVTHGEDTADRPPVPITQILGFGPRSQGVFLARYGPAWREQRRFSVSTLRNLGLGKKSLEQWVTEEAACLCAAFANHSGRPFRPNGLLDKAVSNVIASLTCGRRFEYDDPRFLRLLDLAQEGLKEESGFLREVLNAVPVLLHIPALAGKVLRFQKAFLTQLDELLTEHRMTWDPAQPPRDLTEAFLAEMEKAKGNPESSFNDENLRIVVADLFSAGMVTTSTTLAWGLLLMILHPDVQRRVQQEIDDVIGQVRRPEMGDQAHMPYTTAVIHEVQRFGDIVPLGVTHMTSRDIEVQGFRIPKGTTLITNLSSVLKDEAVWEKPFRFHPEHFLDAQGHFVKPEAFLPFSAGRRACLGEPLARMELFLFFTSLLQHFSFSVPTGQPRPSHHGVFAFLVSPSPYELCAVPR
Nature of the data set: Inhibitory action on drug metabolizing enzyme (CYP2D6/AMMC high throughput inhibitor screening kit). Type of data set: in vitro ADME. To be noted: CYP2D6 expression system microsome, AMMC substrate, 37° C. for 30 minutes. On the procedure: (§1) Inhibitory actions on CYP2D6 and CYP3A4 were measured by using a CYP2D6/AMMC high throughput inhibitor screening kit and a CYP3A4/BFC high throughput inhibitor screening kit (both manufactured by BD Bioscience), respectively. That is, an NADPH generation system, a cofactor, and the test compound were dispersed in a 96-well plate, and AMMC (CYP2D6) and BFC (CYP3A4), which were fluorescent substrates, were added to each well. Further, CYP2D6 expression system microsome and CYP3A4 expression system microsome were added to each well and incubated at 37° C. for 30 minutes. […] Incidentally, as a control substance of this test, roflumilast was used.

The next data set concerns the target T3, CYP3A4 (Homo sapiens, UniProt P08684).
T3 construct: purchased BD Bioscience
Nature of the data set: Inhibitory action on drug metabolizing enzyme (CYP3A4/BFC high throughput inhibitor screening kit). The format is in vitro ADME. The settings on record: CYP3A4 expression system microsome, BFC substrate, 37° C. for 30 minutes. As to the method:
as §1

T3 sequence (P08684 whole entry): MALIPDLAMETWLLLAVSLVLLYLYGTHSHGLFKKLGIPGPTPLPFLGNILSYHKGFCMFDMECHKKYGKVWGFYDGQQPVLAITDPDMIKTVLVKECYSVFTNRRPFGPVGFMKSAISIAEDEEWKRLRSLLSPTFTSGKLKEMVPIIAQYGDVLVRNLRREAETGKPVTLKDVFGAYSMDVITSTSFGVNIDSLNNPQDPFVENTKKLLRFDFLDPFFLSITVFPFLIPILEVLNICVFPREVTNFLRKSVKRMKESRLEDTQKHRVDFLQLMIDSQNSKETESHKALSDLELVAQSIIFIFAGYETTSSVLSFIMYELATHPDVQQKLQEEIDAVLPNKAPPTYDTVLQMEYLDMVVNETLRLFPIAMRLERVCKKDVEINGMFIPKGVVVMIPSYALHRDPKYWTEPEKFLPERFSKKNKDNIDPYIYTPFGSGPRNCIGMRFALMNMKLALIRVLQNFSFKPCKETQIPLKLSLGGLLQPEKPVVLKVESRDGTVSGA

Molecule `O=c1c2c(Cc3ccccc3)n[nH]c2c2cccnc2n1-c1cccc(OC(F)(F)F)c1` [Example 1, 3-Benzyl-5-(3-trifluoromethoxyphenyl)-1H-pyrazolo[4,3-c][1,8]-naphthyridin-4(5H)-one] gave an IC50 in data set [1] of 0.003 µM. The “Inhibitory rate (%) of TNFα production in 0.5 mg/kg” value (“Inhibitory rate (%)” for short) with TNFα production was found to be 47%.
For `O=c1c2c(Cc3ccccc3)n[nH]c2c2cccnc2n1-c1cccc(C(F)(F)F)c1` [Example 2, 3-Benzyl-5-(3-trifluoromethylphenyl)-1H-pyrazolo[4,3-c][1,8]-naphthyridin-4(5H)-one], in data set [1], the midpoint of inhibition, the IC50, lay at 0.007 µM. Moreover, in the data set on TNFα production, the “Inhibitory rate (%)” value came out at 55%.
`O=c1c2c(Cc3ccccc3C(F)(F)F)n[nH]c2c2cccnc2n1-c1ccccc1` [Example 8, 5-Phenyl-3-(2-trifluoromethylbenzyl)-1H-pyrazolo[4,3-c][1,8]naphthyridin-4(5H)-one] showed a melting point of 292 to 294 °C. The IC50 in data set [1] stood at 0.003 µM. Also, in the data set on TNFα production, the “Inhibitory rate (%)” value came out at 51%. Also, at CYP2D6, the IC50 was > 10 µM. The IC50 on CYP3A4 is > 10 µM.
As for `CC(c1ccccc1)c1n[nH]c2c1c(=O)n(-c1ccccc1)c1ncccc21` (centres unmarked) [Example 11, 5-Phenyl-3-(1-phenylethyl)-1H-pyrazolo[4,3-c][1,8]naphthyridin-4(5H)-one], the IC50 in data set [1] is 0.014 µM; against CYP2D6, > 10 µM; against CYP3A4, 8.9 µM. Moreover, in the data set with TNFα production, the “Inhibitory rate (%)” value worked out at 49%.
The molecule `O=c1c2c(CCC(F)(F)F)n[nH]c2c2cccnc2n1-c1ccccc1` [Example 14, 5-Phenyl-3-(3,3,3-trifluoropropyl)-1H-pyrazolo[4,3-c][1,8]naphthyridin-4(5H)-one] returned a melting point of 272 to 274 °C.
On the same count and under the same terms, next, `O=c1c2c(Cc3ccccc3)n[nH]c2c2cnccc2n1-c1ccccc1` [Example 15, 3-Benzyl-5-phenyl-1H-pyrazolo[4,3-c][1,6]naphthyridin-4(5H)-one]: 284 to 287 °C.
In the case of `O=c1c2c(Cc3ccccc3)n[nH]c2c2ccccc2n1-c1ccccc1` [Example 16, 3-Benzyl-5-phenyl-1H-pyrazolo[4,3-c]quinolin-4(5H)-one], the melting point was 255 to 257 °C.
`O=c1c2c(Cc3ccccc3C(F)(F)F)n[nH]c2c2cccnc2n1-c1cccc(C(F)(F)F)c1` [Example 17, 3-(2-Trifluoromethylbenzyl)-5-(3-trifluoromethylphenyl)-1H-pyrazolo[4,3-c][1,8]naphthyridin-4(5H)-one] registered a melting point of 260 to 264 °C.
`O=c1c2c(Cc3cccc(C(F)(F)F)c3)n[nH]c2c2cccnc2n1-c1cccc(C(F)(F)F)c1` [Example 18, 3-(3-Trifluoromethylbenzyl)-5-(3-trifluoromethylphenyl)-1H-pyrazolo[4,3-c][1,8]naphthyridin-4(5H)-one] yielded a melting point of 206 to 208 °C.
`O=c1c2c(Cc3ccc(C(F)(F)F)cc3)n[nH]c2c2cccnc2n1-c1cccc(C(F)(F)F)c1` [Example 19, 3-(4-Trifluoromethylbenzyl)-5-(3-trifluoromethylphenyl)-1H-pyrazolo[4,3-c][1,8]naphthyridin-4(5H)-one] registered a melting point of 145 to 148 °C.
The molecule `O=c1c2c(Cc3ccccc3OC(F)(F)F)n[nH]c2c2cccnc2n1-c1cccc(C(F)(F)F)c1` [Example 20, 3-(2-Trifluoromethoxybenzyl)-5-(3-trifluoromethylphenyl)-1H-pyrazolo[4,3-c][1,8]naphthyridin-4(5H)-one] gave a melting point of 247 to 252 °C.
Consider `O=c1c2c(Cc3cccc(OC(F)(F)F)c3)n[nH]c2c2cccnc2n1-c1cccc(C(F)(F)F)c1` [Example 21, 3-(3-Trifluoromethoxybenzyl)-5-(3-trifluoromethylphenyl)-1H-pyrazolo[4,3-c][1,8]naphthyridin-4(5H)-one], for which the melting point fell in the range of 129 to 132 °C.
In turn, `O=c1c2c(Cc3ccc(OC(F)(F)F)cc3)n[nH]c2c2cccnc2n1-c1cccc(C(F)(F)F)c1` [Example 22, 3-(4-Trifluoromethoxybenzyl)-5-(3-trifluoromethylphenyl)-1H-pyrazolo[4,3-c][1,8]naphthyridin-4(5H)-one] returned a melting point of 134 to 137 °C.
On the same count and under the same terms, next, `O=c1c2c(Cc3ccccc3C(F)(F)F)n[nH]c2c2cccnc2n1-c1cccc(OC(F)(F)F)c1` [Example 23, 5-(3-Trifluoromethoxyphenyl)-3-(2-trifluoromethylbenzyl)-1H-pyrazolo[4,3-c][1,8]naphthyridin-4(5H)-one]: 252 to 255 °C; `O=c1c2c(Cc3cccc(C(F)(F)F)c3)n[nH]c2c2cccnc2n1-c1cccc(OC(F)(F)F)c1` [Example 24, 5-(3-Trifluoromethoxyphenyl)-3-(3-trifluoromethylbenzyl)-1H-pyrazolo[4,3-c][1,8]naphthyridin-4(5H)-one]: 206 to 209 °C.
The same measure, in the same setting: next, `O=c1c2c(Cc3ccc(C(F)(F)F)cc3)n[nH]c2c2cccnc2n1-c1cccc(OC(F)(F)F)c1` [Example 25, 5-(3-Trifluoromethoxyphenyl)-3-(4-trifluoromethylbenzyl)-1H-pyrazolo[4,3-c][1,8]naphthyridin-4(5H)-one]: 227 to 231 °C.
Molecule `O=c1c2c(Cc3ccccc3OC(F)(F)F)n[nH]c2c2cccnc2n1-c1cccc(OC(F)(F)F)c1` [Example 26, 3-(2-Trifluoromethoxybenzyl)-5-(3-trifluoromethoxyphenyl)-1H-pyrazolo[4,3-c][1,8]naphthyridin-4(5H)-one] came in with a melting point of 233 to 236 °C.
`O=c1c2c(Cc3cccc(OC(F)(F)F)c3)n[nH]c2c2cccnc2n1-c1cccc(OC(F)(F)F)c1` [Example 27, 3-(3-Trifluoromethoxybenzyl)-5-(3-trifluoromethoxyphenyl)-1H-pyrazolo[4,3-c][1,8]naphthyridin-4(5H)-one]: the melting point lay within 174 to 177 °C.
Consider `O=c1c2c(Cc3ccc(OC(F)(F)F)cc3)n[nH]c2c2cccnc2n1-c1cccc(OC(F)(F)F)c1` [Example 28, 3-(4-Trifluoromethoxybenzyl)-5-(3-trifluoromethoxyphenyl)-1H-pyrazolo[4,3-c][1,8]naphthyridin-4(5H)-one], for which the melting point lay in the range of 129 to 132 °C.
As for `O=c1c2c(Cc3ccccc3)n[nH]c2c2ccncc2n1-c1ccccc1` [Example 29, 3-Benzyl-5-phenyl-1H-pyrazolo[4,3-c][1,7]naphthyridin-4(5H)-one], the melting point fell in the range of 303 to 307 °C.
Regarding `CC(c1ccccc1)c1n[nH]c2c1c(=O)n(-c1cccc(OC(F)(F)F)c1)c1ncccc21` (centres unmarked) [Example 36, 3-(1-Phenylethyl)-5-(3-trifluoromethoxyphenyl)-1H-pyrazolo[4,3-c][1,8]naphthyridin-4(5H)-one], the melting point lay within 183 to 185 °C.
The same measure, in the same setting: for `CC(c1ccccc1)c1n[nH]c2c1c(=O)n(-c1cccc(C(F)(F)F)c1)c1ncccc21` (centres unmarked) [Example 42, 3-(1-Phenylethyl)-5-(3-trifluoromethylphenyl)-1H-pyrazolo[4,3-c][1,8]naphthyridin-4(5H)-one] the value was 235 to 237 °C.
Regarding `CCC(c1ccccc1)c1n[nH]c2c1c(=O)n(-c1ccccc1)c1ncccc21` (centres unmarked) [Example 43, 5-Phenyl-3-(1-phenylpropyl)-1H-pyrazolo[4,3-c][1,8]naphthyridin-4(5H)-one], the melting point fell in the range of 233 to 235 °C.
In turn, `O=c1c2c(Cc3cccs3)n[nH]c2c2cccnc2n1-c1cccc(OC(F)(F)F)c1` [Example 45, 3-(2-Thienylmethyl)-5-(3-trifluoromethoxyphenyl)-1H-pyrazolo[4,3-c][1,8]-naphthyridin-4(5H)-one] returned a melting point of 234 to 238 °C.
`O=c1c2c(Cc3ccsc3)n[nH]c2c2cccnc2n1-c1cccc(OC(F)(F)F)c1` [Example 46, 3-(3-Thienylmethyl)-5-(3-trifluoromethoxyphenyl)-1H-pyrazolo[4,3-c][1,8]-naphthyridin-4(5H)-one]: the melting point lay within 247 to 251 °C.
Regarding `O=C(Nc1c(Cl)cncc1Cl)c1ccc(OC(F)F)c(OCC2CC2)c1` [Roflumilast, reference compound], the “Inhibitory rate (%)” value in the data set with TNFα production is 50%.

What is called IC50 is the concentration at which inhibition is half-maximal. Lower therefore signals inhibition by little substance. One may read the melting point as the temperature of the solid-liquid transition.
